# Experimental data reported in PMC6105845, “Nucleotide Prodrug Containing a Nonproteinogenic Amino Acid To Improve Oral Delivery of a Hepatitis C Virus Treatment” (Antimicrobial Agents and Chemotherapy, 2018).
# Biological target: HINT1 (Homo sapiens, UniProt P49773)
# Assay: P-N bond cleavage of metabolite X by HINT1
# Assay type: biochemical
# Procedure: Biochemical assays studying prodrug cleavage have been described previously ([8]). In brief, the cleavages of GS2 by CATA, CES1, CES2, and HINT1 were assessed in vitro. The reaction substrates and products were monitored over time by high-performance liquid chromatography (HPLC).
# HINT1, sequence (P49773 whole entry): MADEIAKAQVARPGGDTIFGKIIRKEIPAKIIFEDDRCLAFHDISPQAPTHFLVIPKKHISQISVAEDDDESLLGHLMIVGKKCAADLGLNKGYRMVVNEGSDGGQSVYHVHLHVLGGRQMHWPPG
SMILES,HINT1 specific activity higher than toward metabolite X of GS-6620,"HINT1 specific activity, P-N bond cleavage"
CC(C)(NP(=O)(O)OC[C@H]1O[C@@](C#N)(c2ccc3c(N)ncnn23)[C@](C)(O)[C@@H]1O)C(=O)O [metabolite X of GS2],5.7 fold,341 pmol/min/µg
C[C@H](NP(=O)(O)OC[C@H]1O[C@@](C#N)(c2ccc3c(N)ncnn23)[C@](C)(O)[C@@H]1O)C(=O)O [metabolite X of GS-6620],–,60 pmol/min/µg
